Results reported in patent publication US9394544B2, “Ameliorating oxidative stress in neurodegenerative disease via Nox1 targeting” (University of Central Florida Research Foundation, Inc., priority 2013, dated 2016).

Tests used:
N27 cells = test: 8-oxo-dG immunostaining (oxidative DNA damage) in N27 cells; type: cell-based, rat
Source text: To substantiate that nuclear Nox1/Rac1 complex produces superoxide, it was investigated whether selective inhibition of the Nox1/Rac1 complex attenuates ROS production. Adeno-associated virus serotype 2 (AAV2) expression cassettes with either Nox1 shRNA or a T17N dominant negative Rac1 variant were used to knockdown Nox1 or inhibit Rac1, respectively. These vectors separately expressed Green Fluorescent Protein (GFP) as a marker for transduction efficiency. […] The increased levels of active Nox1/Rac1 complex (FIG. 4B) in the nucleus, and increased ROS (FIGS. 5A and 5B) of DA cells in the presence of 6-OHDA, led one to investigate whether oxidative DNA damage occurs in the nucleus. […] As early as 3 days after striatal injection of 6-OHDA, 8-oxo-dG staining was increased in the SN (FIG. 5E). […]
For fluorescent immunostaining, N27 cells in the 4-well chamber slide were incubated for 1 h at 37° C. in 2% normal donkey serum containing either a rabbit polyclonal antibody against Nox1 (1:500), or p-c-jun (1:500). […] Specific binding was detected by incubation for 60 min at room temperature with a 1:200 dilution of secondary antibodies conjugated to AlexaFluor 546 dyes. […] Mounted slices were evaluated for fluorescence under settings for 546 and 488 nm emissions on a confocal microscope.

α-synuclein = test: α-Synuclein aggregation (immunocytochemistry, PK resistance, A11) in N27 cells exposed to PQ; type: cell-based, rat; settings: for increase in aggregated α-synuclein-positive cells vs control: 24 h
Description: The same Nox1 shRNA used for AAV2 construct was cloned into a pLVX-shRNA2 vector containing zsGreen1 (Clontech). To make lentiviral particles, ViraPower Lentiviral Expression System (Invitrogen) was used. […]. For 6-well plates, 8 μg of each plasmid was mixed in a 1:1:1:1 ratio in 100 μl of Xfect polymer buffer and then added to the cells. After 48 h, the viral-containing medium was harvested and centrifuged briefly at 500×g for 10 min to remove cellular debris and supernatant recovered and kept at −80° C. until used.
After each respective treatment, cells were fixed in 4% paraformaldehyde (PFA) for 20 min and permeabilized with 0.1% Triton X-100 in PBS for 10 min. Blocking was performed by incubation with 20% goat or donkey serum in PBS containing 0.1% Tween 20 for 90 min at room temperature. The cells were then incubated for 120 min at room temperature with the following primary antibodies, according to the aim of the experiment: goat anti-Nox1 (1:50), rabbit anti-TH (1:10,000), mouse anti-Flag (1:150), mouse anti-α-synuclein (1:150), and rabbit anti-A11 (2.5 μg/ml). After washing, cells were incubated for 120 min with the appropriate secondary antibodies conjugated to Alexa Fluor 647 or Alexa Fluor 488 (1:1000). For nuclear visualization coverslips were incubated with 2 μM Hoechst for 10 min. For quantification of Flag^+ and α-synuclein^+ cells, >30 different fields per coverslip were analyzed on a Nikon inverted fluorescent microscope under a 20× and 40× magnification.
Immunocytochemistry for proteinase K (PK)-resistant α-synuclein was performed based on a methodology reported previously (Neumann et al., 2002), with some modifications. Briefly, fixed cells were permeabilized with 0.1% Tween 20 and then digested for 30 min at 37° C. with PK (10 μg/ml). PK was inactivated with 3 M guanidine thiocyanate in 10 mM Tris-HCl solution for 10 min. Between each step, cells were washed gently three times with PBS. Cells were then incubated for 60 min with blocking solution containing 10% donkey serum followed by an overnight incubation with mouse anti-α-synuclein antibody (1:150). The day after, cells were incubated with secondary antibodies conjugated to Alexa Fluor 647 donkey anti-mouse for 60 min and with 2 μM Hoechst solution for 10 min. For PK-resistant α-synuclein evaluation in rat SN, 40 μm sections from 4% PFA fixed tissues were washed twice in distillated water with 0.1% Tween 20, and then incubated for 30 min in TBST. The tissues were incubated for 90 min at 55° C. with 50 μg/ml PK in TBST and further washed three times in TBS. PK was denatured by incubating the tissues in a 3 M guanidine thiocyanate in 10 mM Tris-HCl solution for 10 min. […]

| SMILES | DNA oxidative damage (8-oxo-dG immunoreactivity in the nucleus) caused by toxin (N27 cells) | A11 immunoreactivity vs controls (α-synuclein) | PK-resistant α-synuclein immunoreactivity (α-synuclein) | increase in aggregated α-synuclein-positive cells vs control (α-synuclein; 800 μM) | increase in aggregated α-synuclein-positive cells vs control (α-synuclein; 1000 μM) |
| --- | --- | --- | --- | --- | --- |
| NCCc1cc(O)c(O)cc1O [6-OHDA, 6-hydroxydopamine] | increased DNA oxidative damage |  |  |  |  |
| C[n+]1ccc(-c2cc[n+](C)cc2)cc1 [PQ, paraquat] |  | high A11 immunoreactivity | higher PK-resistant α-synuclein immunoreactivity | 62% | 64% |
